Source: ChEMBL document CHEMBL5380844, “Discovery of a Novel, Potent, Orally Active, and Safe Inhibitor Targeting Human Mitochondrial RNA Polymerase” (J Med Chem, 2023)
pIC50: −log10 of the molar value. Activity calls are given as the source filed them. The rule behind the calls is not given here.

Tests used:
[1] = Clearance in ICR mouse at 1 mg/kg, iv measured upto 24 hrs by LC-MS/MS analysis; format: ADME, organism-based; conditions: in vivo
[2] = Apparent permeability across apical to basolateral side in human Caco-2 cells at 3 uM incubated for 2 hrs by LC-MS/MS analysis; format: ADME, cell-based
A2780 [3] = experiment: Antitumor activity against human A2780 cells xenografted in BALB/c nude mouse model assessed as effect on liver 100 mg/kg, po measured after 27 days; format: functional, organism-based; conditions: time 27.0 day
A2780 [4] = experiment: Induction of mitochondrial membrane potential changes in human A2780 cells assessed as increase in Q3 phase at 0 to 5 uM measured after 96 hrs by flow cytometry analysis; format: functional, cell-based; conditions: dose 0-5 µM
A2780 [5] = experiment: Antitumor activity against human A2780 cells xenografted in BALB/c nude mouse model assessed as reduction in beta-actin level at 100 mg/kg, po by immunoblotting analysis; format: functional, organism-based
A2780 [6] = experiment: Inhibition of MT-ATP6 expression in human A2780 cells at 100 nM incubated for 12 hrs by RNA sequencing analysis; format: functional, cell-based
[7] = Half life in ICR mouse at 1 mg/kg, iv measured upto 24 hrs by LC-MS/MS analysis; format: ADME, organism-based; conditions: in vivo
HepG2 = experiment: Antiproliferative activity against human HepG2 cells incubated for 168 hrs by SRB method; format: functional, cell-based; conditions: HepG2, 168 h
A2780 [8] = experiment: Induction of cell cycle arrest in human A2780 cells assessed as accumulation of cells at G2 phase at 200 nM measured after 96 hrs by PI staining based flow cytometry analysis (reference value: 4.49%); format: functional
A2780 [9] = experiment: Induction of apoptosis in human A2780 cells assessed as necrotic cells at 50 nM incubated for 96 hrs by Annexin-V/FITC and PI staining based flow cytometry analysis (reference value: 2.07%); format: functional
A2780 [10] = experiment: Effect on 28S mRNA level in human A2780 cells by RT-qPCR analysis; format: functional, cell-based
A2780 [11] = experiment: Inhibition of mitochondrial transcript in human A2780 cells assessed as decrease in ND1 expression by RT-qPCR analysis; format: functional, cell-based
DLD-1 = experiment: Antiproliferative activity against human DLD-1 cells incubated for 168 hrs by SRB method; format: functional, cell-based; conditions: DLD-1, 168 h
A2780 [12] = experiment: Induction of apoptosis in human A2780 cells assessed as increase in cleaved PARP cleavage level at upto 500 nM by immunoblot analysis; format: functional, cell-based
A2780 [13] = experiment: Antitumor activity against human A2780 cells xenografted in BALB/c nude mouse model assessed as reduction in tumor weight at 50 mg/kg, po administered daily and measured after 27 days relative to control; format: functional; parameters: scale not given: the % may be the effect or the level left; conditions: time 27 day
A2780 [14] = experiment: Inhibition of mitochondrial transcript in human A2780 cells by RT-qPCR analysis; format: functional, cell-based; conditions: dose 0.01-1 µM
[15] = Acute toxicity in Balb/c mouse assessed as effect on liver 100 mg/kg measured after 27 days by H and E staining based analysis; format: organism-based; conditions: in vivo, 648 h, time 27 day
A2780 [16] = experiment: Inhibition of MT-CO1 expression in human A2780 cells at 100 nM incubated for 12 hrs by RNA sequencing analysis; format: functional, cell-based
[17] = Apparent permeability across basolateral side to apical side in human Caco-2 cells at 3 uM incubated for 2 hrs by LC-MS/MS analysis; format: ADME, cell-based
MDA-MB-231 = experiment: Antiproliferative activity against human MDA-MB-231 cells incubated for 168 hrs by SRB method; format: functional, cell-based; conditions: MDA-MB-231, 168 h
A2780 [18] = experiment: Inhibition of MT-CO2 expression in human A2780 cells at 100 nM incubated for 12 hrs by RNA sequencing analysis; format: functional, cell-based
[19] = MRT in ICR mouse at 10 mg/kg, po measured upto 24 hrs by LC-MS/MS analysis; format: ADME, organism-based; conditions: in vivo
A2780 [20] = experiment: Inhibition of colony formation in human A2780 cells assessed as appearance of smaller colonies at upto 500 nM incubated for 14 days by crystal violet staining based analysis; format: functional, cell-based; conditions: time 14.0 day
A2780 [21] = experiment: Downregulation of COX1 level in human A2780 cells by Western blot analysis; format: functional, cell-based; conditions: dose <= 500.0 nM
A2780 [22] = experiment: Inhibition of mitochondrial transcript in human A2780 cells incubated for 12 hrs followed by compound removal and measured after 12 hrs by RT-qPCR analysis; format: functional, cell-based
A2780 [23] = experiment: Induction of cell cycle arrest in human A2780 cells assessed as accumulation of cells at G1 phase at 50 nM measured after 96 hrs by PI staining based flow cytometry analysis (reference value: 80.81%); format: functional
A2780 [24] = experiment: Effect on cellular senescence in human A2780 cells at 0.05 to 1 uM measured after 96 hrs by beta-galactosidase staining based analysis; format: functional, cell-based; conditions: dose 0.05-1 µM
A2780 [25] = experiment: Induction of apoptosis in human A2780 cells assessed as late apoptotic cells at 200 nM incubated for 96 hrs by Annexin-V/FITC and PI staining based flow cytometry analysis (reference value: 3.79%); format: functional
A2780 [26] = experiment: Induction of apoptosis in human A2780 cells assessed as necrotic cells at 100 nM incubated for 96 hrs by Annexin-V/FITC and PI staining based flow cytometry analysis (reference value: 2.07%); format: functional
A2780 [27] = experiment: Antitumor activity against human A2780 cells xenografted in BALB/c nude mouse model assessed as reduction in ATP5A level at 100 mg/kg, po by immunoblotting analysis; format: functional, organism-based
A2780 [28] = experiment: Inhibition of MT-CYB expression in human A2780 cells at 100 nM incubated for 12 hrs by RNA sequencing analysis; format: functional, cell-based
A2780 [29] = experiment: Induction of apoptosis in human A2780 cells assessed as viable cells at 100 nM incubated for 96 hrs by Annexin-V/FITC and PI staining based flow cytometry analysis (reference value: 89.2%); format: functional; conditions: read-out: Activity
A2780 [30] = experiment: Induction of apoptosis in human A2780 cells assessed as necrotic cells at 200 nM incubated for 96 hrs by Annexin-V/FITC and PI staining based flow cytometry analysis (reference value: 2.07%); format: functional
A2780 [31] = experiment: Inhibition of colony formation in human A2780 cells assessed as reduction in number of colonies at upto 500 nM incubated for 14 days by crystal violet staining based analysis; format: functional, cell-based; conditions: time 14.0 day
A2780 [32] = experiment: Antitumor activity against human A2780 cells xenografted in BALB/c nude mouse model assessed as reduction in tumor weight at 100 mg/kg, po administered daily and measured after 27 days relative to control; format: functional; parameters: scale not given: the % may be the effect or the level left; conditions: time 27 day
A2780 [33] = experiment: Antiproliferative activity against human A2780 cells incubated for 168 hrs by SRB method; format: functional, cell-based; conditions: A2780, 168 h
[34] = AUC (0 to infinity) in ICR mouse at 1 mg/kg, iv measured upto 24 hrs by LC-MS/MS analysis; format: ADME, organism-based; parameters: time < 24 hrs, dose 1 mg/kg, route iv; conditions: in vivo
A2780 [35] = experiment: Antitumor activity against human A2780 cells xenografted in BALB/c nude mouse model assessed as reduction in mitochondrial DNA transcript level at 50 to 100 mg/kg, po administered daily; format: functional, organism-based; conditions: dose 50-100 mg/kg
A2780 [36] = experiment: Induction of mitochondrial morphological changes in human A2780 cells assessed as change in shape of mitochondria measured after 24 hrs by TEM analysis; format: functional, cell-based
A2780 [37] = experiment: Inhibition of MT-ND5 expression in human A2780 cells at 100 nM incubated for 12 hrs by RNA sequencing analysis; format: functional, cell-based

## Cc1ccc(-c2cc(=O)oc3cc(O[C@H](C)C(=O)N4CC5CCC(C4)N5C)ccc23)c(C)c1
[1]
  clearance: 38.2 mL/min/kg
[2]
  Papp A→B at 2 h, 3 µM: 6.93 ×10⁻⁶ cm/s
A2780 [3]
  Activity: inactive
A2780 [4]
  Activity: inactive
A2780 [5]
  Activity: Active
A2780 [6]
  inhibition: Active
[7]
  half-life: 3.12 h
HepG2
  pIC50: 6.82
A2780 [8]
  Activity: 3.16%
A2780 [9]
  Activity: 2.29%
A2780 [10]
  Activity: inactive
A2780 [11]
  inhibition: Active
DLD-1
  pIC50: 7.16
A2780 [12]
  Activity: inactive
A2780 [13]
  Activity: 54.82%
A2780 [14]
  inhibition: Dose-Dependent Effect
[15]
  Activity: Non-Toxic
A2780 [16]
  inhibition: Active
[17]
  Papp B→A at 2 h, 3 µM: 8.3 ×10⁻⁶ cm/s
MDA-MB-231
  pIC50: < 5.00
A2780 [18]
  inhibition: Active
[19]
  MRT: 3.3 h
A2780 [20]
  inhibition: Active
A2780 [21]
  Activity: Dose-Dependent Effect
A2780 [22]
  inhibition: inactive
A2780 [23]
  Activity: 85.51%
A2780 [24]
  Activity: Active
A2780 [25]
  Activity: 4.58%
A2780 [26]
  Activity: 4.46%
A2780 [27]
  Activity: Active
A2780 [28]
  inhibition: Active
A2780 [29]
  viability at 0.1 µM: 90.2%
A2780 [30]
  Activity: 4.01%
A2780 [31]
  inhibition: Active
A2780 [32]
  Activity: 68.66%
A2780 [33]
  pIC50: 7.17
[34]
  AUC(0-inf): 439 ng·h/mL
A2780 [35]
  Activity: Active
A2780 [36]
  Activity: inactive
A2780 [37]
  inhibition: Active
